Experimental data taken from patent publication US10696707B2, “Polyene macrolide derivative” (Shionogi & Co., Ltd., priority 2014, dated 2020).
In brackets after ≈: the same amount, converted by molar mass. Where two headings read alike, the source gives them in different places.

Legend:
[1] = Test Example 4: nephrotoxicity, kidney marker gene expression by quantitative RT-PCR after intravenous administration; format: in vivo; conditions: mouse, kidney, mice, nephrotoxicity positive when ΔΔCt of two-third of target genes (Kim1, Timp1, Lcn2) >3
Experimental: (§1) The expression level of marker genes for nephrotoxicity was determined by quantitative RT-PCR to evaluate nephrotoxicity of the compound of the present invention. The compound of the present invention or vehicle was intravenously administered to mice and their kidneys were isolated. After removal of the kidney capsule, all of the kidneys were sliced into two equal halves, and stored at −80° C. in RNAlater® (Ambion) until use. Samples were disrupted and homogenized in QIAzol Lysis Reagent with TissueLyser (Qiagen), and total RNA was extracted using an RNeasy® Mini kit (Qiagen). Total RNA concentrations were determined to read OD260 by absorptiometer.
(§2) The level of expression of the following target genes was determined using one-step quantitative real-time PCR: Kim1, Timp1, and Lcn2. Total RNA (80 ng/2 μL) was used as the template, and TaqMan Gene Expression Assays (Applied Biosystems, for Haver1 (Kim1), assay ID: Mm00506686_m1; Timp1, Mm01341361_m1; Lcn2, Mm01324470_m1) or TaqMan Endogenous Controls (Gapdh, predesigned assay reagent supplied by ABI, Applied Biosystems) were employed as gene-specific probe and primer sets. Quantitative RT-PCR was performed using a QuantiTect™ Probe RT-PCR kit (Qiagen), and transcript levels were quantitated with an Applied Biosystems 7900HT Fast Real Time PCR System (Applied Biosystems). Reverse transcription and amplification conditions were set as follows: 50° C. for 30 min, 95° C. for 15 min, followed by 40 cycles at 95° C. for 15 s and 60° C. for 1 min. The resulting cycle threshold (Ct) value was processed based on the comparative Ct method (ΔΔCt Method), where Gapdh was used as an endogenous reference gene to normalize the expression level of target genes.
(§3) The ΔCt was calculated as follows: Ct, Gapdh−Ct, target gene.
(§4) The ΔΔCt was calculated as follows: ΔCt, treated sample−ΔCt, average of vehicle control sample.
(§5) Higher ΔΔCt values indicate higher expression rates of the target gene and therefore high risk for nephrotoxicity.

[2] = tested on: red blood cells (5% RBC suspension); assay: Test Example 2-2: in vitro hemolytic activity test (upper limit 200 μmol/L); format: cell-based; conditions: Erythrocyte, read-out: hemolysis IC50
Experimental: Nephrotoxic potentials of the compounds of the present invention whose X is —N(R^F)—CO—X^1 and X^1 is the group represented by formula (III) and T is —N(R^a5)— were investigated by in vitro hemolytic activity test under the condition that the upper limit was 200 μmol/L as the required concentration to 50% of hemolysis (IC50).
Defibrinated sterile blood was centrifuged at 700×g for 3 minutes and, and the supernatant was removed for 100% of red blood cells. After the cleaning with physiological saline, the washed blood cells was suspended in the medium (Earle's balanced salt sodium, bicarbonate, 0.1 g/L L-glutamine without phenol red), and was diluted by 5% (5% RBC suspension).
The washed blood was diluted by 5% in water for injection (solution of complete hemolysis), and was used as the indication of optical density for complete hemolysis.
The compounds of the present invention solution in DMSO (several and doubling dilutions starting from 10 mmol/L), DMSO as the negative control, and Amphotericin B as the positive control were used, and each 5 μL of these was added in to a well of V-form 96 well type microplate. Finally, the maximum concentration of the compounds of the present invention solution in DMSO was 200 μmol/L by adding 245 μL of the medium or 5% RBC suspension into the well.
Two hundred fifty μL of the solution of complete hemolysis was added into another well and the microplate was incubated at 37° C. in 5% of CO2 concentration for an hour.
After the incubation, each 100 μL of supernatants in wells was collected by centrifugation of the microplate at 300×g for 5 minutes and was located on a well of flat-form 96 well type microplate. An absorbance of each supernatant was measured at wavelength of 540 nm.
Percent hemolysis was calculated by using the followed equation. The required concentration to 50% of hemolysis (IC50) was calculated based on the percent hemolysis. […] Hemolysis (%)=(CR−VM)×100÷(VL−VR) Where:
CR: Absorbance of 5% RBC suspension incubated with the compounds of the present invention solution in DMSO
VM: Absorbance of medium incubated with the compounds of the present invention solution in DMSO
VL: Absorbance of solution of complete hemolysis
VR: Absorbance of 5% RBC suspension incubated with DMSO
The “>200” in the table means above IC50 value exceeded the upper concentration 200 μmol/L.

[3] = tested on: HepG2 cells; format: cell-based; conditions: human, 71 h
Experimental: The Cytotoxicith of the compounds of the present invention was evaluated by measuting cell numbers automatically using the cell image analyzer, Toxinsight® (Thermofisher Scientific).
HepG2 cells were seeded in 384-well black plates (100000 cells/mL) and allowed to attach for approximately 24 hours at 37° C. in humidified CO2 incubator. Test compounds and positive control (Fungizone®) were initially dissolved as concentrated 20 mmol/L stock solutions in DMSO and added to culture medium, to the final concentration; 1.6, 3.1, 6.3, 12.5, 25, 50, 100 μmol/L. The negative control well was treated with DMSO alone. After exposure of each test compound for approximately 71 hours, each well were added with Hoechst 33342, for staining of nuclei, diluted in D-PBS to the final concentration; 1 μg/mL, and after that, fixed with 4% paraformaldehyde. The cell number, stained with Hoechst 33342, was counted by Toxinsight® (Thermofisher Scientific) in each well. The mean value of cell number and the standard deviation (SD) was calculated (N=4).

[4] = tested on: A. flavus ATCC204304; assay: Antifungal activity test, MIC by broth microdilution (CLSI M38-A2); format: cell-based; conditions: Aspergillus flavus
Procedure, shortened: (§6)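 CLSI broth microdilution in RPMI 1640 with 2% glucose, 0.165 mol/L MOPS, pH 7.0; two-fold DMSO dilutions. MIC = lowest concentration giving 100% inhibition versus growth control.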

[5] = tested on: A. fumigatus ATCC204305; assay: as above; format: cell-based; conditions: Aspergillus fumigatus
Procedure, shortened: as §6

[6] = tested on: C. albicans ATCC90028; assay: Antifungal activity test, MIC by broth microdilution (CLSI M27-A3); format: cell-based; conditions: Candida albicans
Procedure, shortened: as §6

[7] = tested on: Kim1, Timp1, and Lcn2; assay: Test Example 4: nephrotoxicity, kidney marker gene expression by quantitative RT-PCR after intravenous administration; format: in vivo; conditions: mice, nephrotoxicity positive when ΔΔCt of two-third of target genes (Kim1, Timp1, Lcn2) >3
Experimental: as §1, §2, §3, §4, §5

[8] = tested on: red blood cells (5% RBC suspension); assay: Test Example 2-1: in vitro hemolytic activity test (upper limit 50, 80, 100 or 200 μmol/L); format: cell-based; conditions: read-out: hemolysis IC50
Procedure, shortened: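 A 5% suspension of washed red cells in Earle's medium was exposed to doubling dilutions of compound from DMSO, with maxima of 50, 80, 100 or 200 μmol/L final, for 1 h at 37 °C, 5% CO2. Supernatant absorbance at 540 nm was normalised to water-lysed cells. IC50 is the concentration giving 50% hemolysis; ">" values exceed the top concentration.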

[9] = comparative example, hemolysis method 200 (upper limit 200 μmol/L), 37° C., an hour
[10] = A. flavus ATCC204304, broth microdilution, 35° C., 24-48 hours, 100% inhibition, read-out: MIC
[11] = A. fumigatus ATCC204305, broth microdilution, 35° C., 24-48 hours, 100% inhibition, read-out: MIC
[12] = C. albicans ATCC90028, broth microdilution, 35° C., 24-48 hours, 100% inhibition, read-out: MIC

| Compound | MTD [1] | cytotoxicity (lowest cytotoxicity concentration) [3] | MIC [4, 10] | MIC [5, 11] | MIC [6, 12] | also measured |
| --- | --- | --- | --- | --- | --- | --- |
| C[C@@H]1[C@H](O)[C@@H](C)/C=C/C=C/C=C/C=C/C=C/C=C/C=C/[C@H](O[C@@H]2O[C@H](C)[C@@H](O)[C@H](N)[C@@H]2O)C[C@@H]2O[C@](O)(C[C@@H](O)C[C@@H](O)[C@H](O)CC[C@@H](O)C[C@@H](O)CC(=O)O[C@H]1C)C[C@H](O)[C@H]2C(=O)O [AmB, Amphotericin B, reference compound] | 1 mg/kg | <1.6 µmol/L | – | – | – | IC50 [2, 9]: 1.6 µM |
| C[C@@H]1[C@H](O)[C@@H](C)/C=C/C=C/C=C/C=C/C=C/C=C/C=C/[C@H](O[C@@H]2O[C@H](C)[C@@H](O)[C@H](N)[C@@H]2O)C[C@@H]2O[C@](O)(C[C@@H](O)C[C@@H](O)[C@H](O)CC[C@@H](O)C[C@@H](O)CC(=O)O[C@H]1C)C[C@H](O)[C@H]2NC(=O)NCCN [AmBAU, reference compound] | 12 mg/kg | 51.0 µmol/L | – | – | – | IC50 [2]: 58 µM; MIC ([4]; ATCC204304): 1 µg/mL (≈ 1.02 µM); MIC ([5]; ATCC204305): 1 µg/mL (≈ 1.02 µM); MIC ([6]; ATCC90028): 0.5 µg/mL (≈ 0.51 µM) |
| C[C@@H]1[C@H](O)[C@@H](C)/C=C/C=C/C=C/C=C/C=C/C=C/C=C/[C@H](O[C@@H]2O[C@H](C)[C@@H](O)[C@H](N)[C@@H]2O)C[C@@H]2O[C@](O)(C[C@@H](O)C[C@@H](O)[C@H](O)CC[C@@H](O)C[C@@H](O)CC(=O)O[C@H]1C)C[C@H](O)[C@H]2NC(=O)NCCC(=O)O [AmBCU, reference compound] | 3 mg/kg | 25.2 µmol/L | 1 µg/mL (≈ 0.99 µM) | 1 µg/mL (≈ 0.99 µM) | 0.5 µg/mL (≈ 0.495 µM) | – |
| CNC(=O)N[C@H]1[C@@H]2C[C@@H](O[C@@H]3O[C@H](C)[C@@H](O)[C@H](N)[C@@H]3O)/C=C/C=C/C=C/C=C/C=C/C=C/C=C/[C@H](C)[C@@H](O)[C@@H](C)[C@H](C)OC(=O)C[C@H](O)C[C@H](O)CC[C@@H](O)[C@H](O)C[C@H](O)C[C@](O)(C[C@@H]1O)O2 [AmBMU, reference compound] | 12 mg/kg | 12.5 µmol/L | 1 µg/mL (≈ 1.05 µM) | 1 µg/mL (≈ 1.05 µM) | 0.5 µg/mL (≈ 0.525 µM) | IC50 [2, 9]: 130 µM |
| C[C@@H]1[C@H](O)[C@@H](C)/C=C/C=C/C=C/C=C/C=C/C=C/C=C/[C@H](O[C@@H]2O[C@H](C)[C@@H](O)[C@H](N)[C@@H]2O)C[C@@H]2O[C@](O)(C[C@@H](O)C[C@@H](O)[C@H](O)CC[C@@H](O)C[C@@H](O)CC(=O)O[C@H]1C)C[C@H](O)[C@H]2NC(=O)NC1(C#N)CC1 [I-105] | – | – | – | – | – | nephrotoxicity MTD [7]: >24 mg/kg; IC50 ([8]; hemolysis method 200 (upper concentration 200 μmol/L), 5% RBC suspension, 37° C., one hour): > 200 µM |
| C[C@@H]1[C@H](O)[C@@H](C)/C=C/C=C/C=C/C=C/C=C/C=C/C=C/[C@H](O[C@@H]2O[C@H](C)[C@@H](O)[C@H](N)[C@@H]2O)C[C@@H]2O[C@](O)(C[C@@H](O)C[C@@H](O)[C@H](O)CC[C@@H](O)C[C@@H](O)CC(=O)O[C@H]1C)C[C@H](O)[C@H]2NC(=O)NO [I-219] | 16 mg/kg | – | – | – | – | – |
| C[C@@H]1[C@H](O)[C@@H](C)/C=C/C=C/C=C/C=C/C=C/C=C/C=C/[C@H](O[C@@H]2O[C@H](C)[C@@H](O)[C@H](N)[C@@H]2O)C[C@@H]2O[C@](O)(C[C@@H](O)C[C@@H](O)[C@H](O)CC[C@@H](O)C[C@@H](O)CC(=O)O[C@H]1C)C[C@H](O)[C@H]2NC(=O)N/N=C/[C@H](O)CO [I-235] | – | – | – | – | – | nephrotoxicity MTD [7]: >24 mg/kg |
| C[C@@H]1[C@H](O)[C@@H](C)/C=C/C=C/C=C/C=C/C=C/C=C/C=C/[C@H](O[C@@H]2O[C@H](C)[C@@H](O)[C@H](N)[C@@H]2O)C[C@@H]2O[C@](O)(C[C@@H](O)C[C@@H](O)[C@H](O)CC[C@@H](O)C[C@@H](O)CC(=O)O[C@H]1C)C[C@H](O)[C@H]2NC(=O)NNC[C@@H](O)C(=O)O [I-310] | – | – | 0.5 µg/mL (≈ 0.48 µM) | 1 µg/mL (≈ 0.96 µM) | 0.5 µg/mL (≈ 0.48 µM) | IC50 ([2]; 1 h, Test Example 2-2, hemolysis method 200 (upper concentration 200 μmol/L), 5% RBC suspension, 37° C., one hour): > 200 µM |
| C[C@@H]1[C@H](O)[C@@H](C)/C=C/C=C/C=C/C=C/C=C/C=C/C=C/[C@H](O[C@@H]2O[C@H](C)[C@@H](O)[C@H](NC(=N)N)[C@@H]2O)C[C@@H]2O[C@](O)(C[C@@H](O)C[C@@H](O)[C@H](O)CC[C@@H](O)C[C@@H](O)CC(=O)O[C@H]1C)C[C@H](O)[C@H]2CO [I-394] | > 24 mg/kg | – | – | – | – | – |
| C[C@@H]1[C@H](O)[C@@H](C)/C=C/C=C/C=C/C=C/C=C/C=C/C=C/[C@H](O[C@@H]2O[C@H](C)[C@@H](O)[C@H](N)[C@@H]2O)C[C@@H]2O[C@](O)(C[C@@H](O)C[C@@H](O)[C@H](O)CC[C@@H](O)C[C@@H](O)CC(=O)O[C@H]1C)C[C@H](O)[C@H]2C(=O)NC(CO[C@H]1O[C@H](CO)[C@@H](O)[C@H](O)[C@@H]1O)CO[C@H]1O[C@H](CO)[C@@H](O)[C@H](O)[C@@H]1O [I-396] | 16 mg/kg | – | – | – | – | IC50 ([8]; Erythrocyte, 1 h): > 100 µM |
